Reference: the NIST ThermoML archive (doi:10.1016/j.fluid.2008.07.006)

Key:
[1] = 101.33 kPa, Liquid
[2] = xn = mol fraction of the nth substance listed; settings: 101 kPa, Fluid (supercritical or subcritical phases), x1 = 0
[3] = cn = amount concentration of the nth substance listed, in mol/dm3; settings: 101 kPa, Liquid, Direct current cell with electrodes

CCn1cc[n+](C)c1.F[B-](F)(F)F [1-ethyl-3-methylimidazolium tetrafluoroborate]
[1]
Settings | mass density [kg/m3]
303.2 K | 1278.7
308.2 K | 1275
313.2 K | 1271.4
318.2 K | 1267.8
323.2 K | 1264.2

CCn1cc[n+](C)c1.F[B-](F)(F)F [1-ethyl-3-methylimidazolium tetrafluoroborate] + O
[2]
Settings | binary diffusion coefficient [m2/s]
303.2 K | 1.5e-09
308.2 K | 1.57e-09
313.2 K | 1.69e-09
318.2 K | 1.88e-09
323.2 K | 2.01e-09

molar conductivity [S·m2/mol], [3]
Settings | 303.2 K | 308.2 K | 313.2 K | 318.2 K | 323.2 K
c1 = 1e-09 | 0.0119 | 0.013 | 0.0139 | 0.0149 | 0.0162
c1 = 5.5e-09 | 0.0111 | 0.0121 | 0.0131 | 0.0142 | 0.0153
c1 = 1.32e-08 | 0.0105 | 0.0116 | 0.0125 | 0.0136 | 0.0146
c1 = 2.22e-08 | 0.0101 | 0.0111 | 0.012 | 0.013 | 0.014
c1 = 4.15e-08 | 0.009 | 0.0099 | 0.0108 | 0.0117 | 0.0127

CCn1cc[n+](C)c1.O=S(=O)([O-])C(F)(F)F [1-ethyl-3-methylimidazolium trifluoromethanesulfonate]
[1]
Settings | mass density [kg/m3]
303.2 K | 1377.3
308.2 K | 1373.3
313.2 K | 1369.3
318.2 K | 1365.3
323.2 K | 1361.2

CCn1cc[n+](C)c1.O=S(=O)([O-])C(F)(F)F [1-ethyl-3-methylimidazolium trifluoromethanesulfonate] + O
[2]
Settings | binary diffusion coefficient [m2/s]
303.2 K | 1.16e-09
308.2 K | 1.27e-09
313.2 K | 1.51e-09
318.2 K | 1.66e-09
323.2 K | 1.8e-09

molar conductivity [S·m2/mol], [3]
Settings | 303.2 K | 308.2 K | 313.2 K | 318.2 K | 323.2 K
c1 = 1.2e-09 | 0.0083 | 0.0093 | 0.0101 | 0.011 | 0.012
c1 = 3.8e-09 | 0.0079 | 0.0088 | 0.0097 | 0.0106 | 0.0114
c1 = 8.7e-09 | 0.0077 | 0.0085 | 0.0093 | 0.0102 | 0.0111
c1 = 1.86e-08 | 0.0073 | 0.008 | 0.0088 | 0.0095 | 0.0103
c1 = 3.19e-08 | 0.0069 | 0.0077 | 0.0084 | 0.0092 | 0.01

F[B-](F)(F)F.[Li+] [lithium fluoroborate] + O
molar conductivity [S·m2/mol], [3]
Settings | 303.2 K | 308.2 K | 313.2 K | 318.2 K | 323.2 K
c1 = 3e-09 | 0.0117 | 0.0126 | 0.0134 | 0.0144 | 0.0158
c1 = 1.11e-08 | 0.0111 | 0.0122 | 0.0129 | 0.0139 | 0.0155
c1 = 2.73e-08 | 0.0106 | 0.0119 | 0.0125 | 0.0135 | 0.0152
c1 = 4.81e-08 | 0.0103 | 0.0115 | 0.0121 | 0.0131 | 0.0149
c1 = 7.55e-08 | 0.01 | 0.0112 | 0.0118 | 0.0127 | 0.0145
